Reference: patent US8952024B2, “Herbicidal pyrimidone derivatives” (E I du Pont de Nemours and Company, priority 2009, dated 2015)

Assays:
Type in all cases: in vivo
[1] = test system: Surinam grass (Brachiaria decumbens); experiment: Test B pre-/postemergence plant response
Outline: (§1)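 Test compounds, formulated in a non-phytotoxic solvent mixture with surfactant, are applied to the soil surface (loam and sand blend) right after seeding, or sprayed over plants at the 1- to 4-leaf stage grown in peat moss/vermiculite medium. After 13 to 15 days under glasshouse conditions, each species is scored visually from 0 (no effect) to 100 (complete control) against controls.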

[2] = test system: blackgrass (Alopecurus myosuroides); experiment: Test B pre-/postemergence plant response
Outline: as §1

corn (Zea mays) = experiment: Test B pre-/postemergence plant response
Outline: as §1

[3] = test system: giant foxtail (Setaria faberii); experiment: Test B pre-/postemergence plant response
Outline: as §1

[4] = test system: goosegrass (Eleusine indica); experiment: Test B pre-/postemergence plant response
Outline: as §1

[5] = test system: green foxtail (Setaria viridis); experiment: Test B pre-/postemergence plant response
Outline: as §1

[6] = test system: johnsongrass (Sorghum halepense); experiment: Test B pre-/postemergence plant response
Outline: as §1

[7] = test system: lambsquarters (Chenopodium album); experiment: Test B pre-/postemergence plant response
Outline: as §1

[8] = test system: pigweed (Amaranthus retroflexus); experiment: Test B pre-/postemergence plant response
Outline: as §1

[9] = test system: ragweed (common ragweed, Ambrosia elatior); experiment: Test B pre-/postemergence plant response
Outline: as §1

wild oat (Avena fatua) = experiment: Test B pre-/postemergence plant response
Outline: as §1

rice (Oryza sativa) = experiment: Test B flooded paddy test; details: for Plant response rating, Rice: Flood (flooded paddy test), 13 to 15 days
Outline: (§2)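 Ratings are visual, 0–100 (100 = complete control), taken versus untreated controls 13 to 15 days after treatment in the greenhouse. Compound went straight into paddy water held 3 cm above soil, applied to 2-leaf-stage plants of four species.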

[10] = test system: umbrella sedge (Cyperus difformis); experiment: Test B flooded paddy test; details: for Plant response rating, Sedge, Umbrella: Flood (flooded paddy test), 13 to 15 days
Outline: as §2

[11] = Postemergence, 31 g ai/ha, 0 to 100 scale (0 no effect, 100 complete control)
[12] = Postemergence, 62 g ai/ha, scale 0 to 100 (0 no effect, 100 complete control)
[13] = Postemergence, 250 g ai/ha, scale 0 to 100 (0 no effect, 100 complete control), 13 to 15 days
[14] = Preemergence, 31 g ai/ha, scale 0 to 100 (0 no effect, 100 complete control)
[15] = Preemergence, 62 g ai/ha, scale 0 to 100 (0 no effect, 100 complete control)
[16] = Preemergence, 125 g ai/ha, scale 0 to 100, 0 no effect, 100 complete control
[17] = Preemergence, 250 g ai/ha, 0 to 100 scale
[18] = Postemergence, 125 g ai/ha, scale 0 to 100 (0 no effect, 100 complete control)
[19] = 250 g ai/ha, flooded paddy test, visual rating on 0 to 100 scale (0 no effect, 100 complete control) after 13 to 15 days
[20] = 62 g ai/ha, scale of 0 to 100 where 0 is no effect and 100 is complete control
[21] = 125 g ai/ha, scale 0 to 100, 0 is no effect, 100 is complete control
[22] = Flood, 31 g ai/ha, scale 0 to 100 (0 no effect, 100 complete control)

Compound: COc1ccc(-n2c(-c3ccccc3)ncc(C(=O)C3=C(O)CCCC3=O)c2=O)cc1OC [Compound 218]
- Plant response rating, Surinam Grass [1, 11]: 75
- Plant response rating, Surinam Grass [1, 12]: 80
- Plant response rating, Surinam Grass [1, 13]: 90
- Plant response rating, Surinam Grass [1, 14]: 10
- Plant response rating, Surinam Grass [1, 15]: 65
- Plant response rating, Surinam Grass [1, 16]: 98
- Surinam Grass plant response rating [1, 17]: 100
- Plant response rating, Blackgrass [2, 11]: 0
- Plant response rating, Blackgrass [2, 12]: 0
- Plant response rating, Blackgrass [2, 18]: 5
- Plant response rating, Blackgrass [2, 13]: 5
- Plant response rating, Blackgrass [2, 14]: 0
- Plant response rating, Blackgrass [2, 15]: 0
- Plant response rating, Blackgrass [2, 16]: 0
- Blackgrass plant response rating [2, 17]: 20
- Plant response rating, Corn (corn (Zea mays); [11]): 0
- Plant response rating, Corn (corn (Zea mays); [12]): 10
- Plant response rating, Corn (corn (Zea mays); [18]): 75
- Plant response rating, Corn (corn (Zea mays); [13]): 80
- Plant response rating, Corn (corn (Zea mays); [14]): 0
- Plant response rating, Corn (corn (Zea mays); [15]): 0
- Plant response rating, Corn (corn (Zea mays); [16]): 0
- Corn plant response rating (corn (Zea mays); [17]): 0
- Plant response rating, Foxtail, Giant [3, 11]: 40
- Plant response rating, Foxtail, Giant [3, 12]: 55
- Plant response rating, Foxtail, Giant [3, 18]: 65
- Plant response rating, Foxtail, Giant [3, 13]: 85
- Plant response rating, Foxtail, Giant [3, 14]: 0
- Plant response rating, Foxtail, Giant [3, 15]: 0
- Plant response rating, Foxtail, Giant [3, 16]: 20
- Foxtail, Giant plant response rating [3, 17]: 85
- Plant response rating, Goosegrass [4, 11]: 0
- Plant response rating, Goosegrass [4, 12]: 10
- Plant response rating, Goosegrass [4, 18]: 15
- Plant response rating, Goosegrass [4, 13]: 35
- Plant response rating, Goosegrass [4, 14]: 10
- Plant response rating, Goosegrass [4, 15]: 60
- Plant response rating, Goosegrass [4, 16]: 98
- Goosegrass plant response rating [4, 17]: 98
- Plant response rating, Foxtail, Green [5, 11]: 60
- Plant response rating, Foxtail, Green [5, 12]: 85
- Plant response rating, Foxtail, Green [5, 18]: 90
- Plant response rating, Foxtail, Green [5, 13]: 90
- Plant response rating, Foxtail, Green [5, 14]: 0
- Plant response rating, Foxtail, Green [5, 15]: 30
- Plant response rating, Foxtail, Green [5, 16]: 80
- Foxtail, Green plant response rating [5, 17]: 100
- Plant response rating, Johnsongrass [6, 18]: 55
- Plant response rating, Johnsongrass [6, 13]: 80
- Plant response rating, Johnsongrass [6, 14]: 0
- Plant response rating, Johnsongrass [6, 15]: 0
- Plant response rating, Johnsongrass [6, 16]: 20
- Johnsongrass plant response rating [6, 17]: 45
- Plant response rating, Lambsquarters [7, 11]: 98
- Plant response rating, Lambsquarters [7, 12]: 98
- Plant response rating, Lambsquarters [7, 18]: 100
- Plant response rating, Lambsquarters [7, 13]: 100
- Plant response rating, Lambsquarters [7, 14]: 100
- Plant response rating, Lambsquarters [7, 15]: 100
- Plant response rating, Lambsquarters [7, 16]: 100
- Lambsquarters plant response rating [7, 17]: 100
- Plant response rating, Pigweed [8, 11]: 100
- Plant response rating, Pigweed [8, 12]: 100
- Plant response rating, Pigweed [8, 13]: 100
- Plant response rating, Pigweed [8, 14]: 100
- Plant response rating, Pigweed [8, 15]: 100
- Plant response rating, Pigweed [8, 16]: 100
- Pigweed plant response rating [8, 17]: 100
- Plant response rating, Ragweed [9, 11]: 95
- Plant response rating, Ragweed [9, 12]: 95
- Plant response rating, Ragweed [9, 13]: 100
- Plant response rating, Ragweed [9, 14]: 85
- Plant response rating, Ragweed [9, 15]: 95
- Plant response rating, Ragweed [9, 16]: 98
- Ragweed plant response rating [9, 17]: 100
- Plant response rating, Oat, Wild (wild oat (Avena fatua); [11]): 40
- Plant response rating, Oat, Wild (wild oat (Avena fatua); [12]): 45
- Plant response rating, Oat, Wild (wild oat (Avena fatua); [13]): 60
- Plant response rating, Oat, Wild (wild oat (Avena fatua); [14]): 0
- Plant response rating, Oat, Wild (wild oat (Avena fatua); [15]): 0
- Plant response rating, Oat, Wild (wild oat (Avena fatua); [16]): 0
- Oat, Wild plant response rating (wild oat (Avena fatua); [17]): 0
- Plant response rating, Flood, Rice (rice (Oryza sativa); [19]): 15
- Plant response rating, Rice (rice (Oryza sativa); [20]): 0
- Plant response rating, Rice (rice (Oryza sativa); [21]): 10
- Rice plant response rating (rice (Oryza sativa); [22]): 0
- Plant response rating, Flood, Sedge, Umbrella [10, 19]: 85
- Plant response rating, Sedge, Umbrella [10, 20]: 80
- Plant response rating, Sedge, Umbrella [10, 21]: 85
- Sedge, Umbrella plant response rating [10, 22]: 75
